Data: patent publication US20220313629A1, “TRANSIENT POTENTIAL MELASTATIN 8 (TRPM8) ANTAGONISTS AND RELATED METHODS” (MARSHALL UNIVERSITY RESEARCH CORPORATION, priority 2019, published 2022)

System: Oxaliplatin (OXP)-induced cold allodynia in male C57-mice
Test: Oxaliplatin (OXP)-induced cold allodynia, acetone test
Format: in vivo, mouse
Experimental: In Vivo Assays. C57-mice (≈30g) (Harlam, Holland) were used for the study. All experiments were approved by the Institutional Animal and Ethical Committee of the Universidad Miguel Hernandez where experiments were conducted and they were in accordance with the guidelines of the Economic European Community and the Committee for Research and Ethical Issues of the International Association for the Study of Pain. All parts of the study concerning animal care were performed under the control of veterinarians.
Cold allodynia. Oxaliplatin (Tocris) was dissolved in water with gentle warming and was […] injected on days 1, 3 and 5 at a 6 mg/kg dose. The day 7 after administration, experiments were performed. Together with Oxaliplatin injection, saline and a 5% Mannitol solution were intraperitoneally injected to prevent kidney damage and dehydration. The Compound 14 stock was prepared in DMSO (Sigma-Aldrich) and diluted in saline for injections. Compounds at different doses (0.1 to 1 μg) was injected into the plantar surface (25 μL) of the right hind paw of mice. Cold chemical thermal sensitivity was assessed using acetone drop method. Mice were placed in a metal mesh cage and allowed to habituate for approximately 30 minutes in order to acclimatize them. Freshly dispensed acetone drop (10 μL) was applied gently on to the mid plantar surface of the hind paw. Cold chemical sensitive reaction with respect to paw licking was recorded as a positive response (nociceptive pain response). The responses were measured for 20-s with a digital stopwatch. For each measurement, the paw was sampled twice and the mean was calculated. The interval between each application of acetone was approximately 5 minutes.
Cold Allodynia. […] Both acute and chronic OXP-induced cold hypersensitivity have been reproduced in rats and correlated with TRPM8 expression and function. Mizoguchi et al. reported that, in a rodent model, acute cold allodynia after OXP injection was alleviated by the TRPM8 blockers N-(2-aminoethyl)-N-[4-(benzyloxy)-3-methoxybenzyl]-N′-(1S)-1-(phenyl) ethyl] urea and TC-I 2014. According to these findings, the effect of Compound 14 was investigated in an OXP-induced cold allodynia model, using acetone for cooling stimulation. Considering that the cold pain threshold is increased from ≈12° C. to ≈26° C. in OXP-treated patients, acetone stimulation is considered to evoke pain in OXP-treated mice.
The activity of Compound 14 was evaluated 7 days after three intraperitoneal injections of OXP (6 mg/kg) in C57/BL6 mice, when cold allodynia had developed.

[1] = 0.1 and 1 μg single administration, day 7 after OXP

O=C(NC1CCC2(CCCC2)CC1)c1ccc(-c2ccccc2)cc1 [Compound 14, N-(spiro[4.5]decan-8-yl)-[1,1′-biphenyl]-4-carboxamide]
time after administration at which attenuated cold allodynia is evident [1]: 15 min | time after administration of maximum inhibition of cold allodynia [1]: 30 min | effect on OXP effects at 60 minutes (60 minutes after administration): significantly suppresses OXP effects | effect on oxaliplatin-induced cold allodynia (C57/BL6 mice): able to attenuate oxaliplatin-induced cold allodynia in vivo
